Laboratory results taken from patent US20120258960A1, “NOVEL MULTIFUNCTIONAL PEPTIDASE INHIBITORS, ESPECIALLY FOR MEDICAL USE” (IMTM GMBH, priority 2009, published 2012).
pIC50: −log10 of the molar value.

How the values were obtained:
Sprague-Dawley rats = test: Infarct volume after transient focal cerebral ischemia (endothelin 1-induced middle cerebral artery occlusion, eMCAO); format: in vivo; details: cortex, 7 days after eMCAO, % of vehicle control (100%), mean ± S.E.M.; 2 μl of 10 mmol/l intracerebroventricularly during ischemia, 6 and 24 h after reperfusion
Procedure: Studies were performed on male Sprague-Dawley rats (250 to 280 g) obtained from Harlan Winkelmann (Borchen, Germany). The animals were maintained under constant environmental conditions with ambient temperature of 21±2° C. and relative humidity of 40%. They were housed with a 12-h light-dark cycle and given food and water ad libitum.
For stock solution of the compounds, a compound determined for use in the study (25 mmol) was dissolved in dimethyl sulfoxide (DMSO, SigmaAldrich, Germany) and diluted with 0.1 M phosphate buffer saline (PBS, pH 7.4) to a final volume of 10 mmol/l. 2 μl of a 10 mmol/l test compound PBS/DMSO solution was administered intra-cerebroventricularly at different time points after the induction of transient focal cerebral ischemia. If not otherwise stated, all other chemicals were of highest available purity.
The procedure for the induction of transient focal cerebral ischemia by occlusion of the middle cerebral artery via microinjection of endothelin 1 adjacent to the middle cerebral artery was modified from that published previously by Sharkey and Butcher, 1995. Anesthesia was induced with halothane in a mixture of nitrous oxide/oxygen (70:30, v/v) and maintained with 2 to 3% halothane during the following procedures. Rats were placed in a Kopf stereotaxic frame and further anesthetized via nose cone. For the induction of focal cerebral ischemia, a burr hole was drilled (1 mm diameter) into the skull (coordinates: anterior 0.90 mm from bregma, lateral 5.2 mm to satura sagittalis), and the dura was carefully opened. A 29-gauge cannula was lowered 7.5 mm below the dura according to the rat brain atlas of Paxinos and Watson (31). To induce occlusion of the middle cerebral artery, rats received an injection of […] of endothelin 1 (ED-1, Sigma-Aldrich) in 3 μl of 0.1 M phosphate-buffered saline, pH 7.4, over a time period of 5 min. After a further 5 min, the cannula was slowly withdrawn.
For intracerebroventricular application of the compounds selected, a second burr hole was drilled into the skull (coordinates: posterior 0.80 mm from bregma, lateral 1.5 mm to satura sagittalis), and a second 29-gauge cannula was lowered 4.5 mm below the dura. Intracerebroventricular applications of selected compounds (2 μl of a 10 mmol/l PBS/DMSO solution, pH 7.4) were performed during ischemia, 6 and 24 h after reperfusion.
After a survival time of 7 days after endothelin-induced middle cerebral artery occusion (eMCAO), animals were anesthetized by an intraperitonial injection of pentobarbital and perfusion-fixed transcardially with saline, followed by 4% paraformaldehyde in 0.1 M phosphate buffer saline, pH 7.4. Brains were then removed carefully, post-fixed in the same fixative for 2 h, and placed in a rodent brain matrix (rat, Activational Systems Inc., Scientific Instrumentation). 1-mm coronal brain slices were cut with a razor blade at 14 predetermined anterior-posterior levels. After cryoprotection in 30% sucrose, slices were rapidly frozen in isopentane and stored at −80° C. Four to five cryostat sections (30 μm) from each brain slice were cut in a cryo microtome and stained with toluidine blue.
The extent of cortical damage following ischemic injury was documented with microphotographic images from the Nissl-stained slices showing the anterior-posterior level according to the brain atlas of Paxinos and Watson (31). The volume of cortical infarct was determined by an operator blinded to the group composition.
The extent of the infarct area at each level was calculated by integrating of the area of damage at each stereotactic level and the distances between the various levels. Using a light microscope (Nikon, Eclipse TE 3000) equipped with a 4× objective, the image analysis was performed with a computer-assisted image analysis system (Lucia software, Version 4.2.1).
The data were statistically analyzed by non-paired Student's t tests. […]

[1] = test system: human peripheral blood mononuclear cells; test: Inhibition of proliferation of PHA-stimulated mononuclear cells (BrdU incorporation); format: cell-based; details: PBMC, 1 μg/ml Phytohemagglutinine, 48 hours, test compounds 0.1-250 μM, read-out: MNC IC50
Procedure: (§1) Peripheral blood mononuclear cells (PBMC) from healthy human volunteers were freshly isolated by density gradient centrifugation. T lymphocytes (T cells, Tc) were isolated from PBMC fractions via nylon wool adherence. Cells were cultured in standard cell culture media and stimulated by addition of 1 μg/ml Phytohemagglutinine for 48 hours in 96 well flat-bottom microtitre plates. Test compounds were added at concentration ranges from 0.1-250 μM over the total assay period.
DNA synthesis of proliferating PBMC was assessed by incorporation of nucleotide analogue bromdesoxyuridine (BrdU) and subsequent detection of optical density (OD) at 450 nm.
(§2) Data output was based on raw data and calculation of relative proliferation response in relation to PHA-activated T cells in the absence of test compound (100% control).
(§3) The […] value of proliferation suppression was assessed by graphical evaluation.

T lymphocytes = test: Inhibition of proliferation of PHA-stimulated T lymphocytes (tritium thymidine incorporation); format: cell-based; details: Homo sapiens, T-lymphocyte, 1 μg/ml Phytohemagglutinine, 48 hours, test compounds 0.1-250 μM, read-out: T cells IC50
Procedure: as §1
DNA synthesis of proliferating T cells was determined by incorporation of radio labelled tritium thymidine and subsequent radio detection.
as §2, §3

SMILES	Infarct Volume (%) (Sprague-Dawley rats)	pIC50 [1]	pIC50 (T lymphocytes)
CC(C)(CNCC(N)Cc1cc(F)ccc1F)CNC(=O)C(O)C(N)Cc1ccccc1 (centres unmarked) [drawing 292]	59.9 ± 16.1	–	–
CC(C)(NC(=O)CC(N)Cc1ccccc1)C(C)(C)NC(=O)C(O)C(N)Cc1ccccc1 (centres unmarked) [drawing 286]	70.7 ± 6.1	–	–
NC(CC(=O)NC1CCCC(NC(=O)C(O)C(N)Cc2ccccc2)C1)Cc1cc(F)ccc1F (centres unmarked) [drawing 291]	64.2 ± 14.6	–	–
CCCCCCCC(=O)OC(C(=O)NCC(C)(C)CNC(=O)CC(N)Cc1cc(F)ccc1F)C(N)Cc1ccccc1 (centres unmarked) [drawing 247]	–	5.24	5.13
NC(CNC(=O)c1cccc(NC(=O)C(O)C(N)Cc2ccc(-c3ccsc3)cc2)c1)Cc1cc(F)ccc1F (centres unmarked) [drawing 284]	–	5.33	5.41
CCCCCCCCCCCCCCCC(=O)OC(C(=O)NCC(C)(C)CNC(=O)CC(N)Cc1cc(F)ccc1F)C(N)Cc1ccccc1 (centres unmarked) [drawing 288]	58.6 ± 19.7	–	–
CC(C)(CNC(=O)CC(N)Cc1cc(F)ccc1F)CNC(=O)C(O)C(N)Cc1ccc(-c2cccnc2)cc1 (centres unmarked) [drawing 282]	–	4.50	4.19
CCCCCCCCCCCCCCCC(=O)NC(CC(=O)NCC(C)(C)CNC(=O)C(O)C(Cc1ccccc1)NC(=O)CCCCCCCCCCCCCCC)Cc1cc(F)ccc1F (centres unmarked) [drawing 290]	75.6 ± 16.6	–	–
NC(CC(=O)N1CCN(C(=O)CC(O)C(N)Cc2ccccc2)CC1)Cc1ccccc1 (centres unmarked) [drawing 222]	–	3.87	3.80
CC(C)(CNCC(N)Cc1cc(F)ccc1F)CNC(=O)C(O)C(N)Cc1ccccc1 (centres unmarked) [drawing 276]	–	4.51	4.52
CCCCCCCCCCCCCC(=O)NC(CC(=O)NCC(C)(C)CNC(=O)C(O)C(Cc1ccccc1)NC(=O)CCCCCCCCCCCCC)Cc1cc(F)ccc1F (centres unmarked) [drawing 289]	60.7 ± 17.1	–	–
CCCCCCCCCCCC(=O)OC(C(=O)NCC(C)(C)CNC(=O)CC(N)Cc1cc(F)ccc1F)C(N)Cc1ccccc1 (centres unmarked) [drawing 253]	–	5.77	5.70
NC(CC(=O)N1CCCN(C(=O)C(O)C(N)Cc2ccccc2)CC1)Cc1cc(F)ccc1F (centres unmarked) [drawing 271]	–	3.70	4.08
CN(CCCNC(=O)OCc1ccccc1)C(=O)C(O)C(N)Cc1ccccc1 (centres unmarked) [drawing 278]	–	3.83	≤ 3.70
CCCCCCCCCC(=O)OC(C(=O)NCC(C)(C)CNC(=O)CC(N)Cc1cc(F)ccc1F)C(N)Cc1ccccc1 (centres unmarked) [drawing 254]	–	5.60	5.51
NC(CC(=O)Nc1cccc(NC(=O)C(O)C(N)Cc2ccccc2)c1)Cc1cc(F)ccc1F (centres unmarked) [drawing 270]	–	5.04	5.03
NC(CC(=O)N1CCN(C(=O)C(O)C(N)Cc2ccccc2)CC1)Cc1ccccc1 (centres unmarked) [drawing 223]	–	3.85	3.80

SMILES	Infarct Volume (%) (Sprague-Dawley rats)	pIC50 [1]	pIC50 (T lymphocytes)
NC(CC(=O)NCC1(CNC(=O)C(O)C(N)Cc2ccccc2)CCCCC1)Cc1cc(F)ccc1F (centres unmarked) [drawing 273]	–	5.13	5.15
CC(C)(CNC(=O)CC(N)Cc1cc(F)ccc1F)CNC(=O)C(O)C(N)Cc1ccc(-c2cncnc2)cc1 (centres unmarked) [drawing 283]	–	4.15	4.02
NC(CC(=O)NCCCCCNC(=O)C(O)C(N)Cc1ccccc1)Cc1ccccc1 (centres unmarked) [drawing 233]	–	3.70	≤ 3.70
NC(CNC(=O)c1cccc(NC(=O)C(O)C(N)Cc2ccc(-c3cccnc3)cc2)c1)Cc1cc(F)ccc1F (centres unmarked) [drawing 285]	–	4.42	4.61
CC(C)(CNC(=O)CC(N)Cc1cc(F)ccc1F)CNC(=O)C(O)C(N)Cc1ccc(O)cc1 (centres unmarked) [drawing 279]	–	4.36	4.42
CCCC(=O)NC(CC(=O)NCC(C)(C)CNC(=O)C(O)C(Cc1ccccc1)NC(=O)CCC)Cc1cc(F)ccc1F (centres unmarked) [drawing 244]	–	4.26	4.27
C[C@@H]1CN(C(=O)CC(O)C(N)Cc2ccccc2)C[C@H](C)N1C(=O)CC(N)Cc1ccccc1 (some centres unmarked) [drawing 225]	–	4.07	3.83
NC(CC(=O)NCCCCNC(=O)C(O)C(N)Cc1ccccc1)Cc1cc(F)ccc1F (centres unmarked) [drawing 287]	73.5 ± 5.7	–	–
CC(C)(CNC(=O)CC(N)Cc1cc(F)ccc1F)CNC(=O)C1OC(=O)NC1Cc1ccc(-c2ccccc2)cc1 (centres unmarked) [drawing 275]	–	3.70	3.86
CCCCCCCCCCCCCC(=O)OC(C(=O)NCC(C)(C)CNC(=O)CC(N)Cc1cc(F)ccc1F)C(N)Cc1ccccc1 (centres unmarked) [drawing 252]	–	5.72	5.70
NC(CC(=O)NCCNC(=O)C(O)C(N)Cc1ccccc1)Cc1cc(F)ccc1F (centres unmarked) [drawing 221]	–	3.70	≤ 3.70
CCCCCCCCCCCCCCCCNC(CC(=O)NCC(C)(C)CNC(=O)C(O)C(Cc1ccccc1)NCCCCCCCCCCCCCCCC)Cc1cc(F)ccc1F (centres unmarked) [drawing 272]	–	5.00	4.96
NC(CC(=O)NCCCCNC(=O)C(O)C(N)Cc1ccccc1)Cc1cc(F)ccc1F (centres unmarked) [drawing 231]	–	3.87	≤ 3.70
NC(CC(=O)NCCCCNC(=O)C(O)C(N)Cc1ccc(Br)cc1)Cc1cc(F)ccc1F (centres unmarked) [drawing 267]	–	3.70	4.24
CC(C(=O)NCC(C)(C)CNC(=O)C(O)C(N)Cc1ccccc1)C(N)Cc1cc(F)ccc1F (centres unmarked) [drawing 266]	–	4.38	4.41
CC(C)(NC(=O)CC(N)Cc1ccccc1)C(C)(C)NC(=O)C(O)C(N)Cc1ccccc1 (centres unmarked) [drawing 226]	–	4.33	4.79
